Tested on: Bacillus cereus, Staphylococcus aureus, Pseudomonas aeruginosa, Escherichia coli, Aspergillus flavus, Chrysosporium keratinophilum
Experiment: Agar plate disc-diffusion antimicrobial activity
Assay type: cell-based
Details: disc wetted with 10 μL of 10 mg/mL in DMSO; 37° C., 48 h (72 h for fungi); gram positive and gram-negative bacteria and fungi; result in words only
Procedure: The agar plate disc-diffusion method was applied. Sterilized filter papers (6 mm in diameter) were wetted with 10 μL of a solution of 2-(benzo[d]oxazol-2-yl)-N′-(2-(5-phenyl-1,3,4-oxadiazol-2-ylthio)acetoxy)acetimidamide (3) to be tested, containing 10 mg/mL in DMSO, and the discs were allowed to air dry. The discs were then placed onto the surface of agar plates (nutrient agar for bacteria and Sabouraud's dextrose agar for fungi) seeded with the test organism. Each plate contained 15 mL of the agar medium, previously seeded with 0.2 mL of the broth culture of each organism pregrown for 18 hours. The plates were incubated at 37° C. for 48 h, and 72 h for fungi. The inhibition zones were measured in mm. Discs impregnated with DMSO were used as a control, and its inhibition zone was subtracted from the tested compound actual inhibition zone. […] The antibacterial activity was screened against gram positive bacteria namely Bacillus cereus and Staphylococcus aureus and gram-negative bacterial strains namely Pseudomonas aeruginosa and Escherichia coli, while the antifungal activity was screened against Aspergillus flavus and Chrysosporium keratinophilum.

N/C(Cc1nc2ccccc2o1)=N\OC(=O)CSc1nnc(-c2ccccc2)o1 [compound 3, 2-(benzo[d]oxazol-2-yl)-N′-(2-(5-phenyl-1,3,4-oxadiazol-2-ylthio)acetoxy)acetimidamide]
antimicrobial activities (inhibition zones): high antimicrobial activities
